Four compounds from ChEMBL document CHEMBL1201862, “PubChem BioAssay data set” (2004) can be followed below.

A word on the EC50: it is the concentration giving half of the maximal effect. As usually defined, the IC50 is the concentration that gives 50% inhibition.

Active and inactive are the calls of the source.

Assay [1] deals with T1, Alkaline phosphatase, tissue-nonspecific isozyme (Homo sapiens, UniProt P05186).
T1 sequence (P05186 whole entry): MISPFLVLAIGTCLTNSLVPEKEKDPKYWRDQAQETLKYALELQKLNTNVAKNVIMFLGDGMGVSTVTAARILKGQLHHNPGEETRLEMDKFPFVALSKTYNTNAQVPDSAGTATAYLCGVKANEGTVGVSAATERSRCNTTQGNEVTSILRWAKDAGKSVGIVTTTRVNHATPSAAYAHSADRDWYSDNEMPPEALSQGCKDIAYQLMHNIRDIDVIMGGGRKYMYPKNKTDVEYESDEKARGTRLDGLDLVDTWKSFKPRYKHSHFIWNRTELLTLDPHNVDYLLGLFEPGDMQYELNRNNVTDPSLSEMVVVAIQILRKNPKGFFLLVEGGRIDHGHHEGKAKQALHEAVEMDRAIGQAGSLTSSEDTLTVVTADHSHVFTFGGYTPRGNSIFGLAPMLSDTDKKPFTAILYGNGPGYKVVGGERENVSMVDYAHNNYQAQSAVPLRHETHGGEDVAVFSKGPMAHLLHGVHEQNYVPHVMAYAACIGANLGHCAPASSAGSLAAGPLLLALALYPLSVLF
Nature of the assay: TNAP enzyme activators, dose response, selectivity assay for mouse IAP activator project, biochemical, TNAP isozyme, mouse IAP uHTS hits (AID 488880). The format is functional.

Assay [2] addresses T2, Zinc finger protein mex-5 (Caenorhabditis elegans, UniProt Q9XUB2).
T2 sequence (Q9XUB2 whole entry): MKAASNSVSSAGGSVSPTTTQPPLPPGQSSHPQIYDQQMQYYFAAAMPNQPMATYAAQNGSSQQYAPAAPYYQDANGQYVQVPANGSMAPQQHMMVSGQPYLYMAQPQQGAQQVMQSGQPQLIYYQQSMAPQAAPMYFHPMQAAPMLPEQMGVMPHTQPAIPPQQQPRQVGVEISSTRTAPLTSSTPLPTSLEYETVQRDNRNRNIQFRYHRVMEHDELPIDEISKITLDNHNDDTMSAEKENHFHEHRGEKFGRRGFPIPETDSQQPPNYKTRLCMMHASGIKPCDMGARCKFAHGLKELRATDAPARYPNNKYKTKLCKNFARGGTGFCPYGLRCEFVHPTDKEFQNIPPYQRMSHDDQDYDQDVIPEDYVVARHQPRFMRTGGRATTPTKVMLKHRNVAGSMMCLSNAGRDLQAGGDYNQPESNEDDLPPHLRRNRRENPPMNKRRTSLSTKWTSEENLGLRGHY
Nature of the assay: MEX-5/TCR-2 RNA interaction inhibitors, dose response, biochemical, C. elegans, fluorescence polarization (AID 1960). For orientation: In fluorescence polarisation assays a small probe gives low polarisation when free and higher when bound to something large.

Assay [3] has as its target T3, RNA-binding protein pos-1 (Caenorhabditis elegans, UniProt G5EF15).
T3 sequence (G5EF15 whole entry): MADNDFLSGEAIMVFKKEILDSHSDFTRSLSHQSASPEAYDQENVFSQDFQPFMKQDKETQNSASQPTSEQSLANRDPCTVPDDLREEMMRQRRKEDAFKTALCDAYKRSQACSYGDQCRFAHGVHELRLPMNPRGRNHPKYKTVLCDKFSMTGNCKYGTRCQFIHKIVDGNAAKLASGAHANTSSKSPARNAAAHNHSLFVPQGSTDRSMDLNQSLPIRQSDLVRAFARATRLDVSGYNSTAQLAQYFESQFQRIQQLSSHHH
Nature of the assay: inhibitors of POS-1/mex-3 RNA binding, dose response, biochemical, fluorescence polarization (AID 1964).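 Note: purified POS-1 fused to maltose binding protein made in E. coli; potency of compounds blocking POS-1 binding to fluorescent RNA.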

For assay [4], the target named is Large T antigen (Simian virus 40, UniProt P03070). The format is functional, Betapolyomavirus macacae.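 Note: Confirmatory-stage PubChem screen for compounds that inhibit SV40 T antigen.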
Assay [5] concerns the target Intestinal-type alkaline phosphatase (Homo sapiens, UniProt P09923). The assay is described as follows: activation of human intestinal alkaline phosphatase – biochemical, dose response (AID 488873). The assay is classed as functional.
The target in assay [6] is Intestinal-type alkaline phosphatase (Mus musculus, UniProt P24822). Nature of the assay: mouse intestinal alkaline phosphatase activators, dose response, biochemical, luminescence, uHTS hits (AID 488783). The assay is classed as functional.
The target of assay [7] is T4, SUMO-activating enzyme (Homo sapiens, UniProt Q9UBT2). The assay is described as follows: inhibitors of in vitro SUMOylation cascade, primary screen, biochemical, HTRF, uHTS (AID 2006). The format is protein-complex assay. In general terms: In TR-FRET formats the signal depends on donor and acceptor labels being close together.
The target in assay [8] is T5, Estrogen receptor (Homo sapiens, UniProt P03372).
T5 sequence (P03372 whole entry): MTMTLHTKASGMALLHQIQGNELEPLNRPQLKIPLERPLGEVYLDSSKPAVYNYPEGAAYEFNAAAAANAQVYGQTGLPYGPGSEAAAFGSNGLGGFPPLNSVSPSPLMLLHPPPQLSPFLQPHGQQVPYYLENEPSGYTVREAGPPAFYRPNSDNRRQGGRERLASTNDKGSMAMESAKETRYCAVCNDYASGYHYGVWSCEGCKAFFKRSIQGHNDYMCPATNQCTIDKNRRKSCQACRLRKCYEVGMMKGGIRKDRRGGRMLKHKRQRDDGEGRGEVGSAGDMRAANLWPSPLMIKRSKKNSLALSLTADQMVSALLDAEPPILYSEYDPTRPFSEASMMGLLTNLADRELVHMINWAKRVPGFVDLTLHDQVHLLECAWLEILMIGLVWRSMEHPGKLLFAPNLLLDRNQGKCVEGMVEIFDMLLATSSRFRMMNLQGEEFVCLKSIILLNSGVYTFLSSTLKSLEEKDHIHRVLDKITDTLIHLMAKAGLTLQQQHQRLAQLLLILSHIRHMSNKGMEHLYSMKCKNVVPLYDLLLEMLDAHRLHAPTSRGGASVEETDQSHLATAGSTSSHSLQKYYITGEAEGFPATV
The assay is described as follows: potentiators of ERα–SRC-1 coactivator binding, dose response, biochemical, TR-FRET, ERα LBD (AID 737).

Assay [9] has as its target T5, Estrogen receptor.
Assay [10] has as its target T4, SUMO-activating enzyme. The assay is described as follows: SUMOylation inhibitor hit validation, confirmation, SUMOylation inhibitor project, biochemical, AlphaScreen (AID 2018). The assay is classed as functional. On the technique in general: In Alpha technology, singlet oxygen from a donor bead excites a nearby acceptor bead.
Assay [11] deals with T6, G-protein coupled receptor 55 (Homo sapiens, UniProt Q9Y2T6). The assay is described as follows: GPR55 agonists via beta-arrestin recruitment, primary screen, imaging, U2OS cells, beta-arrestin-GFP redistribution (AID 1961). The format is functional.
Assay [12] has as its target T7, Cannabinoid receptor 2 (Homo sapiens, UniProt P34972). The assay is described as follows: SAR analysis of agonists of the Cannabinoid Receptor 2 using an Image-Based Assay - Set 2. [Related pubchem assays (depositor defined):AID1961, AID1965]. The format is functional.
For assay [13], the target named is Cannabinoid receptor 1 (Homo sapiens, UniProt P21554). The assay is described as follows: SAR analysis of antagonists of the Cannabinoid Receptor 1 using an Image-Based Assay. [Related pubchem assays (depositor defined):AID1961, AID1965]. The assay is classed as functional.
Assay [14] concerns the target T6, G-protein coupled receptor 55. Nature of the assay: SAR analysis of selective Agonists of GPR55 using an Image-Based Assay. [Related pubchem assays (depositor defined):AID1961, AID1965]. The assay is classed as functional.
Assay [15] concerns the target T7, Cannabinoid receptor 2. Nature of the assay: SAR analysis of antagonists of the Cannabinoid Receptor 2 using an Image-Based Assay - Set 2. [Related pubchem assays (depositor defined):AID1961, AID1965]. The assay is classed as functional.
The target in assay [16] is T8, Delta-type opioid receptor (Homo sapiens, UniProt P41143). Nature of the assay: SAR Analysis of Agonists of the DOR Receptor using an Image-Based Assay - Set 2. [Related pubchem assays (depositor defined):AID1777, AID1785, AID1786, AID1966, AID2133, AID2136, AID2284, AID2285, AID2370]. The format is functional.
Assay [17] deals with T9, Kappa-type opioid receptor (Homo sapiens, UniProt P41145). Nature of the assay: SAR analysis of Antagonists of the Kappa Opioid Receptor (KOR) using an Image-Based Assay - Set 2. [Related pubchem assays (depositor defined):AID1777, AID1785, AID1786, AID1966, AID2133, AID2136, AID2284, AID2285, AID2348]. The format is functional.
In assay [18] the target is T9, Kappa-type opioid receptor. Nature of the assay: SAR analysis of Agonists of the Kappa Opioid Receptor (KOR) using an Image-Based Assay - Set 2. [Related pubchem assays (depositor defined):AID1777, AID1786, AID1966, AID2133, AID2136, AID2284, AID2285, AID2359]. The format is functional.
The target in assay [19] is T10, Mu-type opioid receptor (Homo sapiens, UniProt P35372). The assay is described as follows: SAR Analysis of Antagonists of the MOR Receptor using an Image-Based Assay - Set 2. [Related pubchem assays (depositor defined):AID1777, AID1785, AID1786, AID1966, AID2133, AID2136, AID2284, AID2285, AID2420]. The format is functional.
Assay [20] concerns the target T9, Kappa-type opioid receptor. Nature of the assay: SAR analysis of small molecule agonists of the kappa opioid receptor via a luminescent beta-arrestin assay - Set 2. [Related pubchem assays (depositor defined):AID1777, AID1785, AID1786, AID1966, AID2133, AID2136, AID2284, AID449737]. The format is functional.
Assay [21] addresses T10, Mu-type opioid receptor. Nature of the assay: SAR Analysis of Agonists of the MOR Receptor using an Image-Based Assay - Set 2. [Related pubchem assays (depositor defined):AID1777, AID1785, AID1786, AID1966, AID2133, AID2136, AID2284, AID2285, AID2352]. The assay is classed as functional.
Assay [22] deals with T8, Delta-type opioid receptor. The assay is described as follows: SAR Analysis of Antagonists of the DOR Receptor using an Image-Based Assay - Set 2. [Related pubchem assays (depositor defined):AID1777, AID1785, AID1786, AID1966, AID2133, AID2136, AID2284, AID2285, AID2357]. The assay is classed as functional.

T9 sequence (P41145 whole entry): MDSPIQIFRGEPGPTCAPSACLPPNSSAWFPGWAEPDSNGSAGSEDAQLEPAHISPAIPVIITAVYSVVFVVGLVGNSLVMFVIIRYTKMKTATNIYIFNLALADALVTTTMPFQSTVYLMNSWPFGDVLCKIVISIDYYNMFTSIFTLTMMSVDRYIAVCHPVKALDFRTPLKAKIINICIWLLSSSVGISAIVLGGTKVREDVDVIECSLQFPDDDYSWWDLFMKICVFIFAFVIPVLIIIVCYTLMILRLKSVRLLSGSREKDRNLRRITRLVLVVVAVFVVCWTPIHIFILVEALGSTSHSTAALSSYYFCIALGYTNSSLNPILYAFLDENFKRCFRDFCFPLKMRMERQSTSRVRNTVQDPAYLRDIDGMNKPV
T4 sequence (Q9UBE0 whole entry): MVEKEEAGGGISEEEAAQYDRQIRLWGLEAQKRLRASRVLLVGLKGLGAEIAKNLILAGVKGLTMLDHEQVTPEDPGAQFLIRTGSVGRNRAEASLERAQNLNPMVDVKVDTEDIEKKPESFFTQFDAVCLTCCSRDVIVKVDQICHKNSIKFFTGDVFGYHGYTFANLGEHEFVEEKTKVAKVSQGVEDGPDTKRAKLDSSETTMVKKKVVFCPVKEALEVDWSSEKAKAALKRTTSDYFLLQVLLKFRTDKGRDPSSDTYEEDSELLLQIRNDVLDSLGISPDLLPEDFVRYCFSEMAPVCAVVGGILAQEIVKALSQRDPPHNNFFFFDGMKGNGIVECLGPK
T4 sequence (Q9UBT2 whole entry): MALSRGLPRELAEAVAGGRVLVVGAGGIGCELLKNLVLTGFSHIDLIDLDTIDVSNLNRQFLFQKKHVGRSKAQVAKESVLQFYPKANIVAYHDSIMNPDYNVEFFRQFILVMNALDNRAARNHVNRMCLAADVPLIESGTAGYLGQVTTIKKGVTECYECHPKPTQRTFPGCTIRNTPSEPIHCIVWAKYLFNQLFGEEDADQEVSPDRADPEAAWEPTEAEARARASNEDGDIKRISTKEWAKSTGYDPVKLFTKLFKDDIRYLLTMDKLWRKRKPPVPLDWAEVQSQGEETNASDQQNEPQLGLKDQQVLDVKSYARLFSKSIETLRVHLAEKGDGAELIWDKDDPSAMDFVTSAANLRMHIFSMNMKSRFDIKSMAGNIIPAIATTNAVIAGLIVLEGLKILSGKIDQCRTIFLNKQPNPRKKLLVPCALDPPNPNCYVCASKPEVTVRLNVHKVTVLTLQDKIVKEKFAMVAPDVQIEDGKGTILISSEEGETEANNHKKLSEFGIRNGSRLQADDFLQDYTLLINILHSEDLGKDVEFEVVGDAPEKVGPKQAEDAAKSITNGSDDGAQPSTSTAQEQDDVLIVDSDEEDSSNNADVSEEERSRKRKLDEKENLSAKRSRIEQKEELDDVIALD
T10 sequence (P35372 whole entry): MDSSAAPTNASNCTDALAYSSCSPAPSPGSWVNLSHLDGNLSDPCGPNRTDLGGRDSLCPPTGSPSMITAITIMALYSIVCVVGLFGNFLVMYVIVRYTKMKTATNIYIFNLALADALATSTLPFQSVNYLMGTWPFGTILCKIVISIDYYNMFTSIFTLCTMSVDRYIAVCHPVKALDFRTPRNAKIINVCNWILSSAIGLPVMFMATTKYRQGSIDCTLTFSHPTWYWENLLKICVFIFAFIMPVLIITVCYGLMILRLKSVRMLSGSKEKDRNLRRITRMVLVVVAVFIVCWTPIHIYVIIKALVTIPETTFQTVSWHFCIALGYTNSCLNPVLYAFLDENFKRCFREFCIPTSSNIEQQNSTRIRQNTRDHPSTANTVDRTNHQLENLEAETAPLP
T6 sequence (Q9Y2T6 whole entry): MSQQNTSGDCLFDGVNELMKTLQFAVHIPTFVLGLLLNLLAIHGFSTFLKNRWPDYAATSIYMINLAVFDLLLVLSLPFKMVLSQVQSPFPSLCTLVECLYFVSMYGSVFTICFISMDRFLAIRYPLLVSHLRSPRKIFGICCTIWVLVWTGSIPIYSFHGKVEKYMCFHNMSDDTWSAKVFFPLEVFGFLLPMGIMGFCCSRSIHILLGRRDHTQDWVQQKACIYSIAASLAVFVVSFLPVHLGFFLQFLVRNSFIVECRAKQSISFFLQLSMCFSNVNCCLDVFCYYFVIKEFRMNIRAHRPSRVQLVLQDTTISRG
T7 sequence (P34972 whole entry): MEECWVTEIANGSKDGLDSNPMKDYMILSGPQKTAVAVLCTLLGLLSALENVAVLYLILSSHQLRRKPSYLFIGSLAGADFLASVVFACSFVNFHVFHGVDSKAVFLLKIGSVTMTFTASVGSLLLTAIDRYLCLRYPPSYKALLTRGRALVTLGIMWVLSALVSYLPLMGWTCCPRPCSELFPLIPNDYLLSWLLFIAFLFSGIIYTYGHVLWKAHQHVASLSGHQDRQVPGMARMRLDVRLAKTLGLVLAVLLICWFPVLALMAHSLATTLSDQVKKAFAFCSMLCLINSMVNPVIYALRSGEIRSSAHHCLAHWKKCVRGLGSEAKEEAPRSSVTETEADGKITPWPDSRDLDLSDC
T8 sequence (P41143 whole entry): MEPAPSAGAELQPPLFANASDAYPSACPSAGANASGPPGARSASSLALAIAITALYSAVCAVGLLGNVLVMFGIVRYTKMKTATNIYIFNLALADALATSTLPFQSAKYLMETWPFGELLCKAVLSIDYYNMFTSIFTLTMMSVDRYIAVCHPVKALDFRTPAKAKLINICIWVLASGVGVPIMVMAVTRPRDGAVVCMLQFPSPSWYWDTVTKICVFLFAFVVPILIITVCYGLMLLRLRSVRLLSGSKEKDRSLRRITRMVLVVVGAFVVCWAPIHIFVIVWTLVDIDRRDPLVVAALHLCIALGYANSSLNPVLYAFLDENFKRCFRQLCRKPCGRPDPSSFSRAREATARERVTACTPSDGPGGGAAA
Chain of Large T antigen (P03070 whole entry): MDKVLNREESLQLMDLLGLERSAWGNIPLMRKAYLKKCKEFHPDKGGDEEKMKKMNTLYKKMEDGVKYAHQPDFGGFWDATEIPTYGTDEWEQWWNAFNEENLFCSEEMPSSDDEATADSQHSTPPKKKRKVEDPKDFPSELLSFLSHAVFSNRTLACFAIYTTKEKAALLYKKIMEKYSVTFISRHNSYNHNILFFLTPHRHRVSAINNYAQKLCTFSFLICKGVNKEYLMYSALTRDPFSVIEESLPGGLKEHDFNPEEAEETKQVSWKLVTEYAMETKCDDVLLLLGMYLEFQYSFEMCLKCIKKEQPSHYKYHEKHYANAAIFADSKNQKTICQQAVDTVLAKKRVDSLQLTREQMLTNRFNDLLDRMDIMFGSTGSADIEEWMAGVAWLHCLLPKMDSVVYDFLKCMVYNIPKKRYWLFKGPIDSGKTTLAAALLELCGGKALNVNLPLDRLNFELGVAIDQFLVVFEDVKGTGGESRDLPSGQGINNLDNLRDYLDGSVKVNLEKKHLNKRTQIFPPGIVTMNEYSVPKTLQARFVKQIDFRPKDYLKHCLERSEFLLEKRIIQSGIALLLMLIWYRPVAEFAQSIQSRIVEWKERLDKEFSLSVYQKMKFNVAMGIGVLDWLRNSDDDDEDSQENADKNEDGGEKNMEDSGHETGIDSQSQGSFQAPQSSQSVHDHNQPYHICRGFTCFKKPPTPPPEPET
Chain of Intestinal-type alkaline phosphatase (Homo sapiens, UniProt P09923) (P09923 whole entry): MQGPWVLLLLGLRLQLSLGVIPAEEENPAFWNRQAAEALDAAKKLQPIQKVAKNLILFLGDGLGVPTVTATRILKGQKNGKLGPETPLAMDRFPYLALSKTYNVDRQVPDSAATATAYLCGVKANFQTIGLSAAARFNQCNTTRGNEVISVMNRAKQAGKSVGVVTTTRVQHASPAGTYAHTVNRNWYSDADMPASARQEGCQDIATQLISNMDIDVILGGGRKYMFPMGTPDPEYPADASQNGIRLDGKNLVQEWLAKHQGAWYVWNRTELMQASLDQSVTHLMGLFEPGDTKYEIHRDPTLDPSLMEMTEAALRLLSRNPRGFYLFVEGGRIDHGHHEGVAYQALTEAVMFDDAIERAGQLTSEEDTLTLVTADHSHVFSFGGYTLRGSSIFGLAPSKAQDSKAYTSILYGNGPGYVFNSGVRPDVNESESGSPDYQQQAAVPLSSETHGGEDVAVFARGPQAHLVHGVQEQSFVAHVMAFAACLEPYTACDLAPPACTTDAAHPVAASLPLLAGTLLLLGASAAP
Chain of Cannabinoid receptor 1 (P21554 whole entry): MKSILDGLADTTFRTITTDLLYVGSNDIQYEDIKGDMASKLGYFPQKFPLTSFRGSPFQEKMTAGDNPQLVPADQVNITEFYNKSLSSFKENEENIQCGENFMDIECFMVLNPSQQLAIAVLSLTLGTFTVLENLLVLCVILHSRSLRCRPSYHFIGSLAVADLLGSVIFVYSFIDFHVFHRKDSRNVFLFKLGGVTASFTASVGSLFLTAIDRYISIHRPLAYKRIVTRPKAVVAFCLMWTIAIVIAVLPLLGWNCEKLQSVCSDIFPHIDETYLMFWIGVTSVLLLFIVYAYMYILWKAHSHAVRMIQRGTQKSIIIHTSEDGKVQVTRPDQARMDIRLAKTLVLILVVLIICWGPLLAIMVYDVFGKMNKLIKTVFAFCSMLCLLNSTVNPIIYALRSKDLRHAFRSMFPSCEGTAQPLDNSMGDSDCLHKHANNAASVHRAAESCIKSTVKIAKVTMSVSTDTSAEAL

Consider `Oc1ccc(-c2csc(Nc3ccccn3)n2)cc1O`, for which the 50% effective concentration (EC50) is 47.9 µM (active) in [1]; 17.3 µM (active) in assay [2]; 74.1 µM (active) in [3]; 48.7 µM (active) in [5]; 24.9 µM (active) in assay [6]. Also, in assay [4], the IC50 was 51.7 µM (active).

As for `O=c1cc(CSc2nnnn2-c2ccccc2)nc(Nc2ccc(F)cc2)[nH]1`, the results for the IC50 in assay [7], in assay [9] and in assay [10] were 6.47 µM (active), > 50 µM (not active) and 11.5 µM (active), respectively. In [8], the EC50 is 12.5 µM (active).

Regarding `COc1ccc(S(=O)(=O)N2CCOCC2)cc1NC(=O)c1cc2c(s1)CCCC2`, the results for the EC50 in assay [11], in [12] and in [14] were 0.524 µM (active), > 32 µM (inactive) and 0.305 µM (active), respectively. The IC50 in [13] and in [15] was > 32 µM (inactive) in each case.

For the compound `Cc1ccc(CSc2nnc(-c3ccccn3)n2Cc2ccco2)cc1`, the EC50 was > 32 µM (inactive) in assay [16], 5.21 µM (active) in assay [18], 6.21 µM (active) in [20] and > 32 µM (inactive) in assay [21]. Also, the IC50 in assay [17], in assay [19] and in [22] was > 32 µM (inactive) throughout.
